Test results taken from PubChem BioAssay AID330 (DTP/NCI, 2004).
Where “and” joins values, the source holds several entries; their conditions need not be identical. Equal values may be shown once. Inconclusive results and toxic doses are left out. The calls were made as follows: active = survival T/C of 150% or more; inactive = T/C below 125% in these data.

Tested on: P388 leukemia ip, CD2F1 mice, survival T/C
Assay: NCI In Vivo Anticancer Drug Screen. Data for tumor model P388 Leukemia (intraperitoneal) in CD2F1 (CDF1) mice
Conditions: endpoint: median survival time, higher = longer survival
Method in brief: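 Mice carrying the transplanted tumor received test compound or vehicle. Survival was recorded in each group, and the value is the treated-group measurement divided by that of the vehicle-treated control group.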

[1] = dose: 25.0 mg/kg/injection, schedule: Q01DX009 (ip), vehicle: saline with Tween-80
[2] = dose: 50.0 mg/kg/injection, schedule: Q01DX009 (ip), vehicle: saline with Tween-80
[3] = dose: 50.0 mg/kg/injection, schedule: Q01DX005 (ip), vehicle: Klucel (hydroxypropylcellulose) (HPC)
[4] = dose: 100.0 mg/kg/injection, schedule: Q01DX005 (ip), vehicle: Klucel (hydroxypropylcellulose) (HPC)
[5] = dose: 50.0 mg/kg/injection, schedule: Q01DX009 (ip), vehicle: saline
[6] = dose: 100.0 mg/kg/injection, schedule: Q01DX009 (ip), vehicle: saline
[7] = dose: 200.0 mg/kg/injection, schedule: Q01DX009 (ip), vehicle: saline
[8] = dose: 25.0 mg/kg/injection, schedule: Q01DX009 (ip), vehicle: saline
[9] = dose: 50.0 mg/kg/injection, schedule: Q01DX005 (ip), vehicle: saline
[10] = dose: 100.0 mg/kg/injection, schedule: Q01DX005 (ip), vehicle: saline
[11] = dose: 200.0 mg/kg/injection, schedule: Q01DX005 (ip), vehicle: saline
[12] = dose: 60.0 mg/kg/injection, schedule: Q01DX005 (ip), vehicle: saline with Tween-80
[13] = dose: 120.0 mg/kg/injection, schedule: Q01DX005 (ip), vehicle: saline with Tween-80
[14] = dose: 240.0 mg/kg/injection, schedule: Q01DX005 (ip), vehicle: saline with Tween-80
[15] = dose: 100.0 mg/kg/injection, schedule: Q04DX003 (ip), vehicle: saline
[16] = dose: 200.0 mg/kg/injection, schedule: Q01DX005 (ip), vehicle: Klucel (hydroxypropylcellulose) (HPC)

Measured: T/C

COP(=O)(OC)O/C(=C/Cl)c1cc(Cl)cc(Cl)c1Cl
inactive: dose: 100.0 mg/kg/injection, schedule: Q04DX003 (ip), vehicle: Klucel (hydroxypropylcellulose) (HPC) 102 % of control | dose: 200.0 mg/kg/injection, schedule: Q04DX003 (ip), vehicle: Klucel (hydroxypropylcellulose) (HPC) 100 % of control | dose: 400.0 mg/kg/injection, schedule: Q04DX003 (ip), vehicle: Klucel (hydroxypropylcellulose) (HPC) 111 % of control

S=c1[nH]c2cc(Cl)ccc2o1
inactive: dose: 6.25 mg/kg/injection, schedule: Q01DX009 (ip), vehicle: saline with Tween-80 108 % of control | dose: 12.5 mg/kg/injection, schedule: Q01DX009 (ip), vehicle: saline with Tween-80 96 % of control | [1] 117 % of control | [2] 105 % of control

Cc1ncc(N)c(C(=O)O)n1
inactive: [3] 98 % of control | [4] 98 % of control

CC(N)(Cc1ccc(O)c(O)c1)C(=O)O (stereo unspecified)
inactive: [5] 99 % of control and 107 % of control and 110 % of control | [6] 99 % of control and 102 % of control and 112 % of control | [7] 108 % of control and 96 % of control | dose: 400.0 mg/kg/injection, schedule: Q01DX009 (ip), vehicle: saline 105 % of control and 109 % of control and 115 % of control | dose: 600.0 mg/kg/injection, schedule: Q01DX009 (ip), vehicle: saline 114 % of control and 121 % of control and 94 % of control

COc1ccc(C2(C3NCCC4=C3CCCC4)CC2)cc1 (stereo unspecified)
inactive: [3] 97 % of control | [4] 100 % of control

CC12CCC(O)CC1CCC1C2CCC2(C)C(c3ccc(=O)oc3)CCC12O (stereo unspecified)
inactive: dose: 0.31 mg/kg/injection, schedule: Q01DX009 (ip), vehicle: saline with Tween-80 100 % of control | dose: 0.62 mg/kg/injection, schedule: Q01DX009 (ip), vehicle: saline with Tween-80 97 % of control | dose: 1.25 mg/kg/injection, schedule: Q01DX009 (ip), vehicle: saline with Tween-80 97 % of control | dose: 2.5 mg/kg/injection, schedule: Q01DX009 (ip), vehicle: saline with Tween-80 103 % of control

CC(Nc1cccc([N+](=O)[O-])c1)S(=O)(=O)O (stereo unspecified)
inactive: [5] 97 % of control | [6] 100 % of control | [7] 97 % of control

COc1ccc2c3c([nH]c2c1[N+](=O)[O-])C(C)NCC3 (stereo unspecified)
inactive: dose: 12.5 mg/kg/injection, schedule: Q01DX005 (ip), vehicle: Klucel (hydroxypropylcellulose) (HPC) 101 % of control | dose: 25.0 mg/kg/injection, schedule: Q01DX005 (ip), vehicle: Klucel (hydroxypropylcellulose) (HPC) 92 % of control | [3] 92 % of control

CCOC(=O)CC1=CS/C(=C(\C#N)C(=O)OCC)N1c1ccccc1
inactive: dose: 50.0 mg/kg/injection, schedule: Q01DX005 (ip), vehicle: saline with Tween-80 100 % of control | dose: 100.0 mg/kg/injection, schedule: Q01DX005 (ip), vehicle: saline with Tween-80 100 % of control | dose: 200.0 mg/kg/injection, schedule: Q01DX005 (ip), vehicle: saline with Tween-80 100 % of control

COc1ccc(OCC2CN(C)CCC2c2ccccc2)cc1 (stereo unspecified)
inactive: dose: 12.5 mg/kg/injection, schedule: Q01DX009 (ip), vehicle: saline 99 % of control | [8] 100 % of control | [5] 101 % of control and 94 % of control

COc1cc2c(cc1O)CCN[C@H]2C
inactive: [9] 100 % of control | [10] 100 % of control | [11] 108 % of control

Clc1ccc(-c2n[se]c(-c3ccc(Cl)cc3)n2)cc1
inactive: [1] 87 % of control | [2] 89 % of control

OCCN1CCN(Cc2cc(Cl)cc(CN3CCN(CCO)CC3)c2O)CC1
inactive: [12] 100 % of control | [13] 97 % of control | [14] 100 % of control

Cc1ccc(CSCc2c(CSCc3ccc(C)cc3)c(CSCc3ccc(C)cc3)c(CSCc3ccc(C)cc3)c(CSCc3ccc(C)cc3)c2CSCc2ccc(C)cc2)cc1
inactive: [2] 92 % of control | dose: 100.0 mg/kg/injection, schedule: Q01DX009 (ip), vehicle: saline with Tween-80 97 % of control | dose: 200.0 mg/kg/injection, schedule: Q01DX009 (ip), vehicle: saline with Tween-80 86 % of control

CN(C)CC(CN(C)C)C(=O)c1ccc(Oc2ccc(Cl)cc2)cc1
inactive: dose: 1.88 mg/kg/injection, schedule: Q01DX005 (ip), vehicle: saline 110 % of control | dose: 3.75 mg/kg/injection, schedule: Q01DX005 (ip), vehicle: saline 116 % of control | dose: 7.5 mg/kg/injection, schedule: Q01DX005 (ip), vehicle: saline 107 % of control and 112 % of control

CC1=NN(C(=O)c2ccccn2)C(c2ccccc2)/C1=N\Nc1ccc(S(N)(=O)=O)cc1 (stereo unspecified)
inactive: dose: 60.0 mg/kg/injection, schedule: Q01DX005 (ip), vehicle: Klucel (hydroxypropylcellulose) (HPC) 87 % of control | dose: 120.0 mg/kg/injection, schedule: Q01DX005 (ip), vehicle: Klucel (hydroxypropylcellulose) (HPC) 93 % of control | dose: 240.0 mg/kg/injection, schedule: Q01DX005 (ip), vehicle: Klucel (hydroxypropylcellulose) (HPC) 87 % of control

CCCCCNc1ncnc2c1ncn2C1OC(CO)C(O)C1O (stereo unspecified)
inactive: dose: 12.5 mg/kg/injection, schedule: Q04DX003 (ip), vehicle: saline 97 % of control | dose: 25.0 mg/kg/injection, schedule: Q04DX003 (ip), vehicle: saline 108 % of control | dose: 50.0 mg/kg/injection, schedule: Q04DX003 (ip), vehicle: saline 102 % of control | [15] 104 % of control

CC(C)CC(Nc1nncs1)Nc1nncs1
inactive: [12] 96 % of control | [13] 90 % of control | [14] 100 % of control

Cn1c(=O)c2[nH]c([N+](=O)[O-])nc2n(C)c1=O
inactive: [15] 96 % of control | dose: 200.0 mg/kg/injection, schedule: Q04DX003 (ip), vehicle: saline 100 % of control | dose: 400.0 mg/kg/injection, schedule: Q04DX003 (ip), vehicle: saline 100 % of control

COC(=O)c1n[nH]nc1CC(N)=O
inactive: [9] 105 % of control | [10] 105 % of control | [11] 103 % of control

CNC(=O)Nc1c(C)cccc1C
inactive: dose: 25.0 mg/kg/injection, schedule: Q04DX003 (ip), vehicle: saline with Tween-80 104 % of control | dose: 50.0 mg/kg/injection, schedule: Q04DX003 (ip), vehicle: saline with Tween-80 100 % of control | dose: 100.0 mg/kg/injection, schedule: Q04DX003 (ip), vehicle: saline with Tween-80 105 % of control | dose: 200.0 mg/kg/injection, schedule: Q04DX003 (ip), vehicle: saline with Tween-80 107 % of control

CC1=C(C(=O)Nc2ccccc2)C(c2ccccc2F)C(C(=O)Nc2ccccc2)=C(C)N1
inactive: dose: 100.0 mg/kg/injection, schedule: Q04DX002 (ip), vehicle: saline with Tween-80 100 % of control | dose: 200.0 mg/kg/injection, schedule: Q04DX002 (ip), vehicle: saline with Tween-80 100 % of control | dose: 400.0 mg/kg/injection, schedule: Q04DX002 (ip), vehicle: saline with Tween-80 91 % of control

COc1ccc2cccc3c4cccc5ccc(OC)c(c1c23)c54
inactive: [3] 97 % of control | [4] 99 % of control | [16] 99 % of control

CCN(CC)CC(C)C1NS(=O)(=O)c2ccccc21 (stereo unspecified)
inactive: dose: 1.56 mg/kg/injection, schedule: Q01DX009 (ip), vehicle: saline 107 % of control | dose: 3.12 mg/kg/injection, schedule: Q01DX009 (ip), vehicle: saline 98 % of control | dose: 6.25 mg/kg/injection, schedule: Q01DX009 (ip), vehicle: saline 100 % of control | [8] 88 % of control | [2] 86 % of control | [5] 87 % of control

c1ccc(-c2[nH]nc3nc4c(nc23)CCCC4)cc1
inactive: [3] 89 % of control | [4] 99 % of control | [16] 92 % of control
